Measurements taken from the NIST ThermoML archive (doi:10.1016/j.fluid.2014.03.019).
Numbers after ± are expanded uncertainties.

Experiments:
[1] = refractive index (Na D-line) (dimensionless); wn = mass fraction of the nth substance listed; settings: Liquid, Standard Abbe refractometry
[2] = wn = mass fraction of the nth substance listed; settings: Liquid, Vibrating tube method

Compound | refractive index ([1]; 288.15 K, w1 = 0.2596) | refractive index ([1]; 298.15 K, w1 = 0.2561) | mass density ([2]; 288.15 K, w1 = 0.2596) [kg/m3] | mass density ([2]; 298.15 K, w1 = 0.2561) [kg/m3] | refractive index ([1]; 288.15 K, w1 = 0.0187) | refractive index ([1]; 298.15 K, w1 = 0.0336) | mass density ([2]; 288.15 K, w1 = 0.0187) [kg/m3] | mass density ([2]; 298.15 K, w1 = 0.0336) [kg/m3]
O=S(=O)([O-])[O-].[Li+].[Li+] [lithium sulfate] + O | 1.3788 ± 0.0005 | 1.3771 ± 0.0006 | 1246.65 ± 1.8 | 1245.02 ± 2.7 | – | – | – | –
O=B[O-].[Li+] [lithium metaborate] + O | – | – | – | – | 1.341 ± 0.0005 | 1.3452 ± 0.0004 | 1023.17 ± 0.34 | 1035.63 ± 0.26
